These are literature values, as cited in patent publication US11345708B2, “Substituted imidazo[1,2-a]imidazoles as modulators of metabotropic glutamate receptor 4 activity” (Hoffmann-La Roche Inc., priority 2017, dated 2022).

Data set [1] concerns mice. To be noted: reported by Addex 2010; cited from earlier work.
Another data set concerns rats. To be noted: cited from earlier work.
Data set [2] concerns mice. The following applies: reported by Addex 2010; cited from earlier work. The source holds these as a separate data set.

`Cc1ccnc(Nc2nc(-c3cn[nH]c3)c(C)s2)n1` [ADX88178]: the “activity in EPM” value with mice [1] was “active”; in the data set with rats (rats, reported by Addex 2010) it was “active”. The “profile in rat EPM test” value with rats (rat, after oral dosing) was “anxiolytic-like profile”. In addition, in the data set with mice [2], the “activity in marble burying test” value is reported as “active”.
